Experiments:
Assay type in all cases: cell-based
Details in all cases: after 10, 20, 40 and 60 minutes at all dilutions 1:100, 1:200, 1:400, 1:800
Escherichia coli = assay: Antimicrobial screening by agar dilution, E. coli
Description: (§1) The antibacterial properties of the synthesized compound 9-(2-hydroxypyridin-3-yl)-10-[3-(dimethylamino)propyl]-3,4,6,7,9,10-hexahydroacridine-1,8(2H,5H)-dione were studied by the method of agar dilution. Test solutions of each compound was prepared in concentration of 1% using dimethylformamide as a solvent then they are diluted in physiological solution to obtain the final experimental dilutions 1:100, 1:200, 1:400, 1:800. The effect of these substances are compared with furacillin in a controllable study. The testing microbes used were gram positive bacteria Staphylococcus aureus, gram negative bacteria Pseudomonas aeruginosa and Escherichia coli and Candida albicans fungus. The experiments used for this survey were meat-pentonlu agar (EPA) for cultivation of bacteria and Saburo environment for the fungus. Each experiment used 1 mL of test solution on each plate […]. Two drops of emulsified with microbes feel were added. All experimental samples were taken from the agar after 10, 20, 40, 60 minutes in the environment on the basis of Patrk planted. The bacteria were cultivated at a temperature of 37° C. for 1 day and the mushroom was kept in a thermostat for […] at a temperature of 28° C. Then results were checked.

Candida albicans = assay: Antimicrobial (antifungal) screening by agar dilution, Candida albicans
Description: as §1

Pseudomonas aeruginosa = assay: Antimicrobial screening by agar dilution, Ps. aeruginosa
Description: as §1

Staphylococcus aureus = assay: Antimicrobial screening by agar dilution, St. aureus
Description: as §1

Measured: inhibition activity (in words)

CN(C)CCCN1C2=C(C(=O)CCC2)C(c2cccnc2O)C2=C1CCCC2=O [9-(2-hydroxypyridin-3-yl)-10-[3-(dimethylamino)propyl]-3,4,6,7,9,10-hexahydroacridine-1,8(2H,5H)-dione]
highest inhibition activity: all assays above
